Test results published in patent publication US9896441B2 (Lycera Corporation, priority 2014, dated 2018).
Each block holds one compound with its values, some of them ahead of it.

Assays:
RORγ-LBD = molecular target: T1, RORγ-LBD (Homo sapiens, UniProt P51449); assay: RORγ-Ligand Binding Domain (LBD) TR-FRET Assay; assay type: biochemical; settings: for TR-FRET Assay Max Response: maximum response;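 on TR-FRET Assay Max Response: 665/615 nm signal ratio set to 100 without ursolic acid or test compound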
T1 construct: made in house; host or cells: SF9 cells (baculovirus); used as diluted lysate
T1 sequence (P51449 269-508 limits assumed): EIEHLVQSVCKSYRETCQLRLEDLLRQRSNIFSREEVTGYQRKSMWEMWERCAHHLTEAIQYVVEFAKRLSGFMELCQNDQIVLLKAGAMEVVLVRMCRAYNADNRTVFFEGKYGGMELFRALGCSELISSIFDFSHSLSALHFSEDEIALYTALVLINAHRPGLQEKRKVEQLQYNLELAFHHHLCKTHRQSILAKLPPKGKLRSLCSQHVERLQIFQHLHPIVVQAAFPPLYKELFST
How it was run: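 TR-FRET read-out using a biotin-tagged SRC1 coactivator LXXLL peptide (200 nM final), with the antagonist ursolic acid present at 2 μM final. Receptor is His-tagged LBD expressed in SF9 cells, ~3 nM final in pH 7.0 Tris/KCl/EDTA/DTT/BSA buffer; compounds in 1% DMSO final.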

Gal4-RORγ-LBD = molecular target: T2, Gal4-RORγ-LBD (Homo sapiens, UniProt P51449); assay: Gal4-RORγ Luciferase Reporter Assay in HEK-293T Cells; assay type: cell-based; settings: HEK-293 cells; for Gal4-RORγ Assay Max Response: maximum response
T2 construct: expressed in transfected cells
T2 sequence (P51449 269-508 limits assumed): T1 sequence (P51449 269-508 limits assumed)
Protocol: Assay procedures and results are described below.
In the following protocol, HEK-293 cells were transfected with a construct comprising the Gal4 DNA binding domain fused to the ligand binding domain of RORγ (Gal4-RORγ-LBD) in a pcDNA3.1neo plasmid, and also with a reporter construct comprising pGL4.31 Gal4-luciferase (Promega). Control cells were prepared similarly using empty pcDNA3.1neo and pGL4.31 vectors.
Trans-IT reagent (Mirus, 60 μL) at room temperature was added drop wise to OptiMEM (Invitrogen, 1.5 ml). This reagent mixture was mixed by inversion then incubated for 5 to 30 minutes at room temperature. It then was added to a solution of both expression vectors (5 μg each), mixed, and incubated at room temperature for about 20 minutes. HEK-293 cells were harvested from incubation flasks by removing the media, treating with TrypLE Express (Invitrogen), and incubating until the cells detached from the bottom of the flask (approximately 2-5 minutes). 10 Million cells were collected by centrifugation and re-suspended in 10 mL of Dulbecco's Modified Eagle Medium, High Glucose (DMEM, Invitrogen) containing 10% Fetal Bovine Serum and 100 IU each of penicillin and streptomycin. The re-suspended cells and the transfection mixture were added to a T75 flask, mixed and incubated overnight at 37° C. and 5% CO2.
The cells were harvested as described above, counted, and centrifuged to obtain the desired number of cells, then re-suspended in complete growth media at 0.75×10^6 cells/mL. The RORγ antagonist, ursolic acid, was added to the cells at a final concentration of […]. Cells were plated at 20 µL of cell suspension/well (10,000-15,000 cells/well) in white tissue culture treated 384 well plates. Test compounds were dissolved at 10 mM in DMSO then diluted into complete growth medium to 5× the final intended test concentration. These drug stock solutions, 5 µL/well were added to the tissue culture plate. The final DMSO concentration was 0.2%. The plates were briefly centrifuged then incubated overnight at 37° C. and 5% CO2. To conduct the assay, the tissue culture plates were allowed to equilibrate to room temperature and One-Glo luciferase reagent (Promega, 25 µL/well) was added. The plates were briefly centrifuged then incubated at room temperature for 10 minutes. The luciferase intensity was read on an Envision plate reader (Perkin Elmer). […] The luciferase signal in the absence of ursolic acid or test compound is defined at 100. The Max Response is the upper plateau in the signal as determined by line-fit using a 4-parameter logistic model in PRISM (GraphPad).

[1] = luciferase reporter, with ursolic acid
[2] = luciferase reporter, in presence of ursolic acid
[3] = with 2 μM ursolic acid (RORγ antagonist), highest test concentration 10 μM
[4] = ursolic acid present, luciferase readout

- EC50 (RORγ-LBD; RORγ-LBD TR-FRET): < 500 nM
- EC50 (Gal4-RORγ-LBD; [1]): 500 to 5000 nM
Structure (SMILES): COC(=O)CC[C@H]1CN(S(=O)(=O)c2cccc(OC(F)F)c2)c2cc(/C=C(\C)c3c(F)cccc3Cl)ccc2O1 [Example 86P, (S,E)-methyl 3-(6-(2-(2-chloro-6-fluorophenyl)prop-1-en-1-yl)-4-((3-(difluoromethoxy)phenyl)-sulfonyl)-3,4-dihydro-2H-benzo[b][1,4]oxazin-2-yl)propanoate]

- EC50 (RORγ-LBD; RORγ-LBD TR-FRET): < 500 nM
- EC50 (Gal4-RORγ-LBD; [1]): < 500 nM
Structure (SMILES): O=C(O)CC[C@H]1CN(S(=O)(=O)c2cccc(C(F)(F)F)c2)c2cc(/C=C3\CCCc4ccccc43)ccc2O1 [Example 37, (S,E)-3-(6-((3,4-Dihydronaphthalen-1(2H)-ylidene)methyl)-4-((3-(trifluoromethyl)phenyl)sulfonyl)-3,4-dihydro-2H-benzo[b][1,4]oxazin-2-yl)propanoic acid]

- EC50 (RORγ-LBD; RORγ-LBD TR-FRET assay): < 500 nM
- EC50 (Gal4-RORγ-LBD; [2]): < 500 nM
Structure (SMILES): C/C(=C\c1ccc2c(c1)C(S(=O)(=O)c1cccc(C(F)(F)F)c1)CC(CCC(=O)O)O2)c1c(F)cccc1Cl (centres unmarked) [Example 186I, (E)-3-(6-(2-(2-chloro-6-fluorophenyl)prop-1-en-1-yl)-4-((3-(trifluoromethyl)phenyl)-sulfonyl)chroman-2-yl)propanoic acid]
- TR-FRET Assay Max Response (RORγ-LBD; RORγ-LBD TR-FRET assay): ** (a value in the range of greater than 90 to 150)
- Gal4-RORγ Assay Max Response (Gal4-RORγ-LBD; [2]): ** (a value in the range of greater than 90 to 150)

- EC50 (RORγ-LBD; RORγ-LBD TR-FRET): < 500 nM
- EC50 (Gal4-RORγ-LBD; [1]): 500 to 5000 nM
Structure (SMILES): CCOc1ncc(Cl)cc1S(=O)(=O)N1C[C@H](CCC(=O)OC)Oc2ccc(/C=C(\C)c3c(F)cccc3Cl)cc21 [Example 67, Methyl (S,E)-3-(4-((5-chloro-2-ethoxypyridin-3-yl)sulfonyl)-6-(2-(2-chloro-6-fluorophenyl)prop-1-en-1-yl)-3,4-dihydro-2H-benzo[b][1,4]oxazin-2-yl)propanoate]

- EC50 (RORγ-LBD; RORγ-LBD TR-FRET): < 500 nM
- EC50 (Gal4-RORγ-LBD; [1]): < 500 nM
Structure (SMILES): COc1cc(S(=O)(=O)N2CCCc3ccc(OC4CCCc5ccccc54)cc32)ccc1F (centres unmarked) [Example 25C, 1-((4-fluoro-3-methoxyphenyl)sulfonyl)-7-((1,2,3,4-tetrahydronaphthalen-1-yl)oxy)-1,2,3,4-tetrahydroquinoline]

- EC50 (RORγ-LBD; RORγ-LBD TR-FRET): < 500 nM
- EC50 (Gal4-RORγ-LBD; [1]): 500 to 5000 nM
Structure (SMILES): O=C(O)CC[C@H]1CN(S(=O)(=O)c2cccc(C(F)(F)F)c2)c2cc(/C=C3/CCCOC3)ccc2O1 [Example 95J, (S,Z)-3-(6-((dihydro-2H-pyran-3(4H)-ylidene)methyl)-4-((3-(trifluoromethyl)phenyl)sulfonyl)-3,4-dihydro-2H-benzo[b][1,4]oxazin-2-yl)propanoic acid]

- EC50 (RORγ-LBD; RORγ-LBD TR-FRET assay): < 500 nM
- EC50 (Gal4-RORγ-LBD; [2]): < 500 nM
Structure (SMILES): C/C(=C\c1ccc2c(c1)N(S(=O)(=O)c1cccc(C(F)(F)F)c1)C[C@H](OC(C)(C)C(=O)O)C2)c1c(F)cccc1Cl [Example 173F, (R,E)-2-((7-(2-(2-chloro-6-fluorophenyl)prop-1-en-1-yl)-1-((3-(trifluoromethyl)phenyl)-sulfonyl)-1,2,3,4-tetrahydroquinolin-3-yl)oxy)-2-methylpropanoic acid]
- TR-FRET Assay Max Response (RORγ-LBD; RORγ-LBD TR-FRET assay): *** (a value in the range of greater than 150 to 200)
- Gal4-RORγ Assay Max Response (Gal4-RORγ-LBD; [2]): ** (a value in the range of greater than 90 to 150)

- EC50 (RORγ-LBD; [3]): < 500 nM
- EC50 (Gal4-RORγ-LBD; [4]): < 500 nM
Structure (SMILES): O=C(O)CC[C@H]1CN(S(=O)(=O)c2cccc(C(F)(F)F)c2)c2cc(C3CCCCC3)ccc2O1 [Example 194, (S)-3-(6-cyclohexyl-4-((3-(trifluoromethyl)phenyl)sulfonyl)-3,4-dihydro-2H-benzo[b][1,4]oxazin-2-yl)propanoic acid]

- EC50 (RORγ-LBD; RORγ-LBD TR-FRET): < 500 nM
- EC50 (Gal4-RORγ-LBD; [1]): 500 to 5000 nM
Structure (SMILES): O=C(O)CC[C@H]1CN(S(=O)(=O)c2cc(C(F)(F)F)cnc2OCCO)c2cc(/C=C3\CC4CCC3C4)ccc2O1 (stereo partly drawn) [Example 95T, 3-((2S)-6-((E)-bicyclo[2.2.1]heptan-2-ylidenemethyl)-4-((2-(2-hydroxyethoxy)-5-(trifluoromethyl)pyridin-3-yl)sulfonyl)-3,4-dihydro-2H-benzo[b][1,4]oxazin-2-yl)propanoic acid]

- EC50 (RORγ-LBD; RORγ-LBD TR-FRET assay): < 500 nM
- EC50 (Gal4-RORγ-LBD; [2]): 500 to 5000 nM
- Gal4-RORγ Assay Max Response (Gal4-RORγ-LBD; [2]): * (a value in the range of 30 to 90)
Structure (SMILES): COc1cc(S(=O)(=O)N2c3cc(/C=C(\C)c4c(F)cccc4Cl)ccc3C[C@H](O)[C@H]2C)ccc1F (racemic) [Example 175, rac-(2R,3S)-7-((E)-2-(2-Chloro-6-fluorophenyl)prop-1-en-1-yl)-1-((4-fluoro-3-methoxyphenyl)sulfonyl)-2-methyl-1,2,3,4-tetrahydroquinolin-3-ol]
- TR-FRET Assay Max Response (RORγ-LBD; RORγ-LBD TR-FRET assay): ** (a value in the range of greater than 90 to 150)

- EC50 (RORγ-LBD; RORγ-LBD TR-FRET): < 500 nM
- EC50 (Gal4-RORγ-LBD; [1]): 500 to 5000 nM
Structure (SMILES): COc1cc(S(=O)(=O)N2CCCc3ccc(O[C@@H]4c5ccccc5C[C@H]4C)cc32)ccc1F (relative stereo) [Example 25E, 1-((4-fluoro-3-methoxyphenyl)sulfonyl)-7-(((trans)-2-methyl-2,3-dihydro-1H-inden-1-yl)oxy)-1,2,3,4-tetrahydroquinoline]

- EC50 (RORγ-LBD; [3]): < 500 nM
- EC50 (Gal4-RORγ-LBD; [4]): 500 to 5000 nM
Structure (SMILES): O=C(O)C1Cc2ccc(OCc3c(F)cccc3Cl)cc2N(S(=O)(=O)c2cccc(C(F)(F)F)c2)C1 (centres unmarked)

- EC50 (RORγ-LBD; [3]): < 500 nM
- EC50 (Gal4-RORγ-LBD; [4]): < 500 nM
Structure (SMILES): C/C(=C\c1ccc2c(c1)N(S(=O)(=O)c1cccc(C(F)(F)F)c1)C[C@H](CNC(=O)N1CCC(C(=O)O)CC1)O2)c1c(F)cccc1Cl [Example 116O, (S,E)-1-(((6-(2-(2-chloro-6-fluorophenyl)prop-1-en-1-yl)-4-((3-(trifluoromethyl)phenyl)sulfonyl)-3,4-dihydro-2H-benzo[b][1,4]oxazin-2-yl)methyl)carbamoyl)piperidine-4-carboxyic acid]

- EC50 (Gal4-RORγ-LBD; [1]): > 10000 nM
Structure (SMILES): COC(=O)CC[C@H]1CN(S(=O)(=O)c2cccc(C(F)(F)F)c2)c2cc(/C=C/c3cccnc3C(F)(F)F)ccc2O1 [Example 89DF, methyl (S,E)-3-(4-((3-(trifluoromethyl)phenyl)-sulfonyl)-6-(2-(2-(trifluoromethyl)pyridin-3-yl)vinyl)-3,4-dihydro-2H-benzo[b][1,4]oxazin-2-yl)propanoate]

- EC50 (Gal4-RORγ-LBD; [2]): < 500 nM
Structure (SMILES): CC(=O)NC1CN(C(=O)CC[C@H]2CN(S(=O)(=O)c3cccc(C(F)(F)F)c3)c3cc(/C=C(\C)c4c(F)cccc4Cl)ccc3O2)C1 [Example 127N, (S,E)-N-(1-(3-(6-(2-(2-chloro-6-fluorophenyl)-prop-1-en-1-yl)-4-((3-(trifluoromethyl)phenyl)-sulfonyl)-3,4-dihydro-2H-benzo[b][1,4]oxazin-2-yl)propanoyl)azetidin-3-yl)acetamide]
- Gal4-RORγ Assay Max Response (Gal4-RORγ-LBD; [2]): ** (a value in the range of greater than 90 to 150)

- EC50 (Gal4-RORγ-LBD; [2]): > 10000 nM
Structure (SMILES): COc1cc(S(=O)(=O)N2C[C@H](CCC(=O)O)Oc3ccc(/C=C(\C)C4CCCCC4)cc32)ccc1F [Example 190, (S,E)-3-(6-(2-cyclohexylprop-1-en-1-yl)-4-((4-fluoro-3-methoxyphenyl)sulfonyl)-3,4-dihydro-2H-benzo[b][1,4]oxazin-2-yl)propanoic acid]

- EC50 (Gal4-RORγ-LBD; [1]): < 500 nM
Structure (SMILES): C/C(=C\c1ccc2c(c1)N(S(=O)(=O)c1cccc(C(F)(F)F)c1)C[C@H](CCC(=O)O)O2)c1c(Cl)cccc1Cl [Example 86AE, (S,E)-3-(6-(2-(2,6-dichlorophenyl)prop-1-en-1-yl)-4-((3-(trifluoromethyl)phenyl)-sulfonyl)-3,4-dihydro-2H-benzo[b][1,4]oxazin-2-yl)propanoic acid]

- EC50 (Gal4-RORγ-LBD; [1]): < 500 nM
Structure (SMILES): COC(=O)CC[C@H]1CN(S(=O)(=O)c2cccc(C(F)(F)F)c2)c2cc(/C=C(\C)c3ccccc3OC)ccc2O1 [Example 86AJ, (S,E)-methyl 3-(6-(2-(2-methoxyphenyl)prop-1-en-1-yl)-4-((3-(trifluoromethyl)phenyl)sulfonyl)-3,4-dihydro-2H-benzo[b][1,4]-oxazin-2-yl)propanoate]
